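Compound exposure: 48 hours, 5 concentrations, 96-well plates. GI50 = concentration required for 50% inhibition of growth. TGI denotes the concentration required for complete inhibition of growth.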
Tests used:
Assay in all cases: growth of human tumour cells (NCI), 48 h
IGROV1 ovarian = tested on: IGROV1 ovarian
HOP-62 NSCLC = tested on: HOP-62 NSCLC
HOP-92 NSCLC = tested on: HOP-92 NSCLC
TK-10 renal = tested on: TK-10 renal
MDA-N = tested on: MDA-N

Row | SMILES | TGI (IGROV1 ovarian) [µM] | TGI (HOP-62 NSCLC) [µM] | TGI (HOP-92 NSCLC) [µM] | TGI (TK-10 renal) [µM] | TGI (MDA-N) [µM] | GI50 (HOP-92 NSCLC) [µM] | GI50 (TK-10 renal) [µM] | GI50 (IGROV1 ovarian) [µM]
1 | O=C1CC(Br)c2c(Cl)sc(Cl)c21 (stereo not drawn) | 24.7 | 19.1 | 29.6 | 7.3 | 12.2 |  |  | 
2 | CC(C)(C)OC(=O)C1=C(C(=O)OC(C)(C)C)SC2(S1)C(C(=O)OC(C)(C)C)=C(C(=O)OC(C)(C)C)Sc1c2ssc1=O | > 100 | > 100 | > 100 | > 100 | > 100 |  |  | 
3 | OCCSCCCSCCO | > 100 | > 100 | 98.8 | > 100 | > 100 |  |  | 
4 | OC(c1cccs1)c1cc2ccccc2s1 (stereo not drawn) | > 10 | > 10 | > 10 | > 10 | > 10 |  |  | 
5 | C=CC1OC(CCCOC(=O)C(C)(C)C)O[C@@H]1CC (stereo partly drawn) | > 100 | > 100 | > 100 | > 100 | > 100 |  |  | 
6 | CC(SC(=S)N1CCCCC1)C(=O)Nc1nnc(-c2ccc(Cl)cc2)o1 (stereo not drawn) | > 100 | > 100 | > 100 | > 100 |  |  |  | 
7 | COC(=O)C1=NN2c3ccccc3C(=O)OCCC2C1 (stereo not drawn) | > 100 | > 100 | > 100 | > 100 | > 100 |  |  | 
8 | O=C1Oc2ccccc2C(=O)/C1=C/N1C(=O)/C(=C/c2ccc([N+](=O)[O-])cc2)SC1=S | > 100 | 40.8 | 5.71 |  | 46.7 |  |  | 
9 | Cc1cccc(-c2cc(=O)c3ccc(C)nc3[nH]2)c1 | > 100 | > 100 | 57.7 | > 84.6 |  |  |  | 
10 | NC(=O)c1n[nH]n(-c2ccccc2)c1=O | > 100 | > 100 |  | > 100 |  |  |  | 
11 | CC1=C(C2=C(C)C(=O)C(=O)c3cc(C)ccc32)c2ccc(C)cc2C(=O)C1=O |  | 2.59 | 0.398 | 1.2 | 0.347 |  |  | 
12 | c1ccc2nc3[nH]c4ccccc4c3cc2c1 | 2.57 |  | 35.5 | 10.7 | 2 |  |  | 
13 | COC(=O)C1OC(O[C@H]2CC[C@]3(C)[C@H]4CC=C5[C@@H]6CC(C)(C)CC[C@]6(C(=O)OC)[C@H](O)C[C@@]5(C)[C@]4(C)CC[C@H]3C2(C)C)C(O)C(O)C1O (stereo partly drawn) | 24.8 | 31.1 | 30.5 |  | 24.9 |  |  | 
14 | CC(C)(C)NC(NC(C)(C)C)=C(C(Cl)=C(Cl)Cl)[N+](=O)[O-] | > 100 | > 100 |  | > 100 | > 100 |  |  | 
15 | N#CC1C(=O)Nc2sc(C(=O)c3ccc(Br)cc3)c(N)c2C12CCCCC2 (stereo not drawn) | > 100 | > 100 |  | > 100 | 55.4 |  |  | 
16 | CCOC(=O)CCC(NC(=O)c1ccc(CNc2nc3cc(N)cc(N)c3nc2-c2ccccc2)cc1)C(=O)OCC (stereo not drawn) | > 100 | > 100 | > 100 | > 100 |  |  |  | 
17 | O=c1nc2n(cc1/C=C\Br)C1CC(O)C(CO2)O1 (stereo not drawn) | > 100 | > 100 |  | > 100 | > 100 |  |  | 
18 | N#CCCC(CC#N)N1CCN(CCO)CC1 (stereo not drawn) | > 100 | > 100 | > 100 | > 100 |  |  |  | 
19 | CC1=C(C(=O)OCCO[N+](=O)[O-])C(c2ccccc2C(F)(F)F)C(C(=O)OC(C)C)=C(C)N1 (stereo not drawn) | 42.8 | 45.8 | 26.8 | 77.4 |  |  |  | 
20 | CN1CCN(CC(=O)Nc2ccc3ncnc(Nc4ccc(Oc5cccc(C(F)(F)F)c5)c(Cl)c4)c3c2)CC1 |  |  | 2.46 | 2.83 |  | 1.09 | 1.25 | 
21 | c1ccc2c(c1)CCc1c-2n(CCN2CCCCC2)c2ccccc12 | 27.3 | 30.1 | 35 | 35.9 |  |  |  | 
22 | COc1cccc(NCC(=O)Nn2c(-c3ccccc3)nc3ccccc3c2=O)c1 | > 100 | > 100 | > 100 | > 100 |  |  |  | 
23 | CC(C)CCCC(C)[C@H]1CC[C@H]2[C@@H]3CC[C@H]4C[C@@H](CCC=C(c5cc(Cl)c(O)c(C(=O)OC(C)(C)C)c5)c5cc(Cl)c(O)c(C(=O)OC(C)(C)C)c5)CC[C@]4(C)[C@H]3CC[C@]12C (stereo partly drawn) | > 50 | > 50 |  |  | > 50 |  |  | 
24 | O=C(O)Cc1ccc(N2N=C(c3ccccc3)CC2=O)cc1 | > 100 | > 100 |  | > 100 | > 100 |  |  | 
25 | CN(C)c1ccc(/C=C/c2sc3ccc4ccccc4c3[n+]2C)cc1 | 1.66 |  | 2.84 | 1.92 |  | 0.636 | 0.41 | 0.368
26 | N[C@@H]1c2c(Br)sc(Br)c2[C@H](O)[C@@H]1O | > 100 |  | > 100 | > 100 | > 100 |  |  | 
27 | OC1C(O)C(O)C(O)C(O)C1O (stereo not drawn) | > 1000 | > 1000 | > 1000 | > 1000 |  |  |  | 
28 | Cc1ccc(C(=O)CC(Cl)=C(Cl)Cl)cc1 | > 100 | > 100 | > 100 | > 100 |  |  |  | 

Reference: PubChem BioAssay (NCI)
